Measured values as given in publication PMC12598851, “Exploiting Avidity Effects for the Discovery of Low Affinity Protein-Binding Fragments” (Journal of Medicinal Chemistry, 2025).
Non-standard residues stand in square brackets, D forms with d. Residues, ends and D or L forms follow the SMILES beside them.

Experiments:
[1] = target: T1, Rpn2-binding surface of Rpn13 (GST-Rpn13 PRU) (Homo sapiens, UniProt Q16186); assay: Competition assay with Rpn2 peptide for GST-Rpn13 PRU fusion protein; details: protein preincubated with Rpn2 peptide 100 μM
T1 construct: the human Rpn13 PRU (pleckstrin-like receptor for ubiquitin) domain is linked to the C-terminus of GST; His6 (C); made in house; host or cells: E. coli BL21 (DE3) codon plus RP
T1 sequence (Q16186 18-131 limits assumed): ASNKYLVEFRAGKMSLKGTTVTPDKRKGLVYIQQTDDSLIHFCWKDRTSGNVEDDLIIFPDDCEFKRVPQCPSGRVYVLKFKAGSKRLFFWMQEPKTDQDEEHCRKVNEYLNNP
Method: As mentioned above, the Rpn13 PRU domain binds to the proteasome via association with a C-terminal peptide tail from Rpn2. […] The amount of protein retained on the resin was then evaluated using the same protocol described above.
This assay was conducted following the exact same procedure described above using two samples: GST-Rpn13 PRU (100 nM) alone, and GST-Rpn13 PRU (100 nM) that had been pretreated with Rpn2 peptide (100 μM) for 1 h at 4 °C. Each sample was added to separate wells of a microtiter plate.

Rpn13 = details: peptide derived from Rpn2; cited from earlier work

effect of soluble Rpn2 peptide competitor on binding of GST-Rpn13 PRU [1]: strongly suppressed binding
SMILES: CC[C@H](C)[C@H](NC(=O)[C@H](Cc1ccc(O)cc1)NC(=O)[C@@H](CCC(=O)O)NC(=O)[C@H](Cc1ccccc1)NC(=O)[C@@H]1CCCN1C(=O)[C@H](CCC(=O)O)NC(=O)[C@@H]1CCCN1C(=O)[C@@H]1CCCN1C(=O)[C@H](CCC(=O)O)NC(=O)[C@@H]1CCCN1C(=O)[C@@H](CCC(=O)O)NC(=O)[C@H](CCC(N)=O)NC(=O)[C@@H]1CCCN1)C(=O)N[C@@H](CC(=O)O)C(N)=O [Rpn2 peptide, reference compound] (H-PQ[dE]PEPPEPF[dE]YID-NH2)
affinity for Rpn13 (Rpn13): nanomolar affinity
